In patent US9018261B2, “Choline salt of an anti-inflammatory substituted cyclobutenedione compound” (Novartis AG, priority 2011, dated 2015):
Structures can show the parent of a compound that is named as a salt.

Columns and labels:
[1] = oral exposure in male SPRAGUE DAWLEY rats; type: in vivo; settings: dosed at 10 mg/kg to male SPRAGUE DAWLEY rats
Protocol: (§1) The choline salt has also a much improved dissolution rate at pH 1 and oral exposure when dosed at 10 mg/kg to male SPRAGUE DAWLEY® rats compared to the free acid form.

[2] = hygroscopicity (amount of water absorbed); type: physicochemical
Source text: Furthermore, the hygroscopicity of the choline salt is much reduced compared with the free acid. The amount of water absorbed by the free acid is 2.4% and 2.8% by weight after 1 day at 80% and 92% humidity, respectively, and the amount of water absorbed by the choline salt is 0.7% and 0.6% by weight after 1 day at 80% and 92% humidity, respectively.

dissolution rate at pH 1 = type: physicochemical
Protocol: as §1

[3] = pharmacokinetic study in male beagle dogs (plasma concentrations); settings: dog, in vivo, 0.3 mg/kg
[4] = solubility in simulated gastric fluid; type: physicochemical
[5] = conversion into free acid form in gastric acidic conditions; type: physicochemical
Source text: The result of this is poor bioavailability of 6-chloro-3-[2-(1-ethyl-propylamino)-3,4-dioxo-cyclobut-1-enylamino]-2-hydroxy-N-methoxy-N-methyl-benzenesulfonamide.

[6] = solubility in aqueous solution at pH 1.0-7.0; type: physicochemical; settings: aqueous buffer, pH 1.0-7.0, as a free acid
Protocol: [drawing 1] is a weakly acidic compound and is practically insoluble in aqueous solution at pH 1.0-7.0 as a free acid (<0.005 mg/ml).

| SMILES | oral exposure compared to the free acid form [1] | amount of water absorbed ([2]; after 1 day at 80% humidity) [% by weight] | amount of water absorbed ([2]; after 1 day at 92% humidity) [% by weight] | dissolution rate compared to the free acid form (dissolution rate at pH 1) | systemic exposure after intravenous administration [3] [ng·h/mL] | solubility ([4]; simulated gastric fluid at pH 1.2) [µg/mL] | solubility in simulated gastric fluid compared to other salts ([4]; vs sodium, calcium, N,N-dimethyl-2-aminoethanol and N-(2-hydroxyethyl)pyrrolidine salts) | conversion into the free acid form [5] | solubility [6] [µg/mL] |
| --- | --- | --- | --- | --- | --- | --- | --- | --- | --- |
| CCC(CC)Nc1c(Nc2ccc(Cl)c(S(=O)(=O)N(C)OC)c2O)c(=O)c1=O [choline salt, 6-chloro-3-[2-(1-ethyl-propylamino)-3,4-dioxo-cyclobut-1-enylamino]-2-hydroxy-N-methoxy-N-methyl-benzenesulfonamide choline] | much improved | 0.7 | 0.6 | much improved | 912 ± 126 | 8020 | significantly improved | readily converts |  |
| CCC(CC)Nc1c(Nc2ccc(Cl)c(S(=O)(=O)N(C)OC)c2O)c(=O)c1=O [free acid, 6-chloro-3-[2-(1-ethyl-propylamino)-3,4-dioxo-cyclobut-1-enylamino]-2-hydroxy-N-methoxy-N-methyl-benzenesulfonamide] |  | 2.4 | 2.8 |  |  |  |  |  | < 5 |
